# Where a SMILES comes first, the peptide text is derived from it. Bridges are numbered along the chain shown (N, C = ends). Where no end group is shown, it is not given here.
# Assays:
# human PAC1 receptor = target: T1, human PAC1 receptor (Homo sapiens, UniProt P41586); test: LANCE Ultra cAMP accumulation antagonist assay in SHSY-5Y cells; type: cell-based;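 further: inhibition of cAMP accumulation evoked by PAC1 agonist at its EC80 in SHSY-5Y cells endogenously expressing receptor, 30 min preincubation then 15 min agonist, TR-FRET readout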
# T1 construct: SHSY-5Y (human neuroblastoma cell line) and RG-2 (rat glioma cell line) cells endogenously express human and rat PAC1 receptors, respectively; endogenous in cells; host or cells: SHSY-5Y human neuroblastoma cells
# T1 sequence (P41586 21-468): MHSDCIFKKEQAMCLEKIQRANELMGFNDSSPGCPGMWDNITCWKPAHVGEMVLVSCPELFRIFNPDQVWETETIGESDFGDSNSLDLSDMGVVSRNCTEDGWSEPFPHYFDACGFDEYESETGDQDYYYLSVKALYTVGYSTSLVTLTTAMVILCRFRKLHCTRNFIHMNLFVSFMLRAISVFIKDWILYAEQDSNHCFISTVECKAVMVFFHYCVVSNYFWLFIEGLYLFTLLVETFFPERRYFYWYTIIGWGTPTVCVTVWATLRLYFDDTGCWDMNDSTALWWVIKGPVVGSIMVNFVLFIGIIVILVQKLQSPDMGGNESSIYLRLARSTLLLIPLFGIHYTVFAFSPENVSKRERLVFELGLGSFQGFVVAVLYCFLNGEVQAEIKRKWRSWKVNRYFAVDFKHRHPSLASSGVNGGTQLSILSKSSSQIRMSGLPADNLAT
# rat PAC1 receptor = target: T2, rat PAC1 receptor (Rattus norvegicus, UniProt P32215); test: LANCE Ultra cAMP accumulation antagonist assay in RG-2 cells; type: cell-based;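 further: RG-2 rat glioma cells endogenously expressing PAC1, test peptide preincubated 30 min, then PAC1 agonist added at its EC80 for 15 min, cAMP accumulation read by LANCE Ultra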
# T2 construct: SHSY-5Y (human neuroblastoma cell line) and RG-2 (rat glioma cell line) cells endogenously express human and rat PAC1 receptors, respectively; endogenous in cells; host or cells: RG-2 rat glioma cells
# T2 sequence (P32215 20-523): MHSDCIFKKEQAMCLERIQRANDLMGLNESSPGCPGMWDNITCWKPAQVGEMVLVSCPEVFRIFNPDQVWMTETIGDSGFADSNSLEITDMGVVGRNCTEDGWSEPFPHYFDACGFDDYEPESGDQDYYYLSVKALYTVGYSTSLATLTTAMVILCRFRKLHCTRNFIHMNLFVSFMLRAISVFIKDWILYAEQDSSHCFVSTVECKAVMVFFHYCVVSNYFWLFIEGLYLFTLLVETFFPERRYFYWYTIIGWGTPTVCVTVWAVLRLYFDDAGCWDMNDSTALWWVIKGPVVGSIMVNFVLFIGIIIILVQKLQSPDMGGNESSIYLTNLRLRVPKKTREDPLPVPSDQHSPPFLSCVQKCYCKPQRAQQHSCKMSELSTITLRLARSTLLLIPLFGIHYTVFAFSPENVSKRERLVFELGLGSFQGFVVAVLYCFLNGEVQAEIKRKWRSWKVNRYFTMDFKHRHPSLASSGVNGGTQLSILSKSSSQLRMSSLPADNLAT
Compound,IC50 (human PAC1 receptor) [nM],IC50 (rat PAC1 receptor) [nM]
"CDATCQFRKAIDDCYYRSHSNVPGSVFKACMKQKKKEFKAG-NH2 (disulfide 1-5, 14-30) [compound 42]",0.01 to 1,0.01 to 1
"CDATCQFRKAIDDCYYRSRHSNVPGSVFKACMKQKKKEFKAG-NH2 (disulfide 1-5, 14-31) [compound 44]",0.01 to 1,< 0.01
"CDATCQFRKAIDDCVWYSMHSNVPGSVFKACMKQKKKEFKAG-NH2 (disulfide 1-5, 14-31) [compound 133]",0.01 to 1,0.01 to 1
"CDATCQFRKAIDDCVYSAWHSNVPGSVFKACMKQKKKEFKAG-NH2 (disulfide 1-5, 14-31) [compound 83]",0.01 to 1,0.01 to 1
"CDATCQFRKAIDDCQKQAHHSNVPGSVFKACMKFRRFLWKAG-NH2 (disulfide 1-5, 14-31) [compound 128]",0.01 to 1,0.01 to 1
"CDATCQFRKAIDDCHLLAWHANVPGSVFKACMKQKKKEFKAG-NH2 (disulfide 1-5, 14-31) [compound 140]",0.01 to 1,0.01 to 1
"CDATCQFRKAIDDCQKQAYHSNVPGNSVFKECMKQKKKEFK-NH2 (disulfide 1-5, 14-32) [compound 306]",1 to 100,1 to 100
"CDATCQFRKAIDDCVRQAHHSNVPGSVFKACMKQKKKEWKAG-NH2 (disulfide 1-5, 14-31) [compound 79]",0.01 to 1,< 0.01
"CDATCQFRKAIDDCWVQAWHSNVPGSVFKACMKQKKKEFKAG-NH2 (disulfide 1-5, 14-31) [compound 134]",0.01 to 1,0.01 to 1
"CC[C@H](C)[C@H](NC(=O)[C@H](C)NC(=O)[C@H](CCCCN)NC(=O)[C@H](CCCNC(=N)N)NC(=O)[C@H](Cc1ccccc1)NC(=O)[C@H](CCC(N)=O)NC(=O)[C@@H]1CSSC[C@H](N)C(=O)N[C@@H](CC(=O)O)C(=O)N[C@@H](C)C(=O)N[C@@H]([C@@H](C)O)C(=O)N1)C(=O)N[C@@H](CC(=O)O)C(=O)N[C@@H](CC(=O)O)C(=O)N[C@H]1CSSC[C@@H](C(=O)N[C@@H](CCSC)C(=O)N[C@@H](CCCCN)C(=O)N[C@@H](CCC(N)=O)C(=O)N[C@@H](CCCCN)C(=O)N[C@@H](CCCCN)C(=O)N[C@@H](CCCCN)C(=O)N[C@@H](CCC(=O)O)C(=O)N[C@@H](Cc2c[nH]c3ccccc23)C(=O)N[C@@H](CCCCN)C(=O)N[C@@H](C)C(=O)NCC(N)=O)NC(=O)[C@H](C)NC(=O)[C@H](CCCCN)NC(=O)[C@H](Cc2ccccc2)NC(=O)[C@H](CO)NC(=O)[C@H](CO)NC(=O)[C@H](Cc2c[nH]cn2)NC(=O)[C@H](Cc2ccc(O)cc2)NC(=O)[C@H](C)NC(=O)[C@H](CCC(N)=O)NC(=O)[C@H](CCCNC(=N)N)NC(=O)[C@H](C)NC1=O [compound 20] (H-CDATCQFRKAIDDCARQAYHSSFKACMKQKKKEWKAG-NH2; disulfide 1-5, 14-26)",0.01 to 1,0.01 to 1
"CDATCQFRKAIDDCVRQAHHSNVPGSVFKACMKQKKKEWKAN (disulfide 1-5, 14-31) [compound 87]",0.01 to 1,0.01 to 1
"CDATCFFRKVIDDCQKQAHHSNVPGSVFKACMKQLKKRWQAG-NH2 (disulfide 1-5, 14-31) [compound 125]",> 100,1 to 100
C#CC[C@@H]1NC(=O)[C@H](CCC(N)=O)NC(=O)[C@H](CCCCN)NC(=O)[C@H](CCC(N)=O)NC(=O)[C@@H](NC(=O)[C@H](CC(=O)O)NC(=O)[C@H](CC(=O)O)NC(=O)[C@@H](NC(=O)[C@H](C)NC(=O)[C@H](CCCCN)NC(=O)[C@H](CCCNC(=N)N)NC(=O)[C@H](Cc2ccccc2)NC(=O)[C@H](CCC(N)=O)NC(=O)[C@@H]2CSSC[C@H](N)C(=O)N[C@@H](CC(=O)O)C(=O)N[C@@H](C)C(=O)N[C@@H]([C@@H](C)O)C(=O)N2)[C@@H](C)CC)CSSC[C@@H](C(=O)N[C@@H](CCSC)C(=O)N[C@@H](CCCCN)C(=O)N[C@@H](CCC(N)=O)C(=O)N[C@@H](CCCCN)C(=O)N[C@@H](CCCCN)C(=O)N[C@@H](CCCCN)C(=O)N[C@@H](CCC(=O)O)C(=O)N[C@@H](Cc2ccccc2)C(=O)N[C@@H](CCCCN)C(=O)N[C@@H](C)C(=O)NCC(N)=O)NC(=O)[C@H](C)NC(=O)[C@H](CCCCN)NC(=O)[C@H](Cc2ccccc2)NC(=O)[C@H](C(C)C)NC(=O)[C@H](CO)NC(=O)CNC(=O)[C@@H]2CCCN2C(=O)[C@H](C(C)C)NC(=O)[C@H](CC(N)=O)NC(=O)[C@H](CO)NC(=O)[C@H](Cc2c[nH]cn2)NC(=O)[C@H](Cc2c[nH]cn2)NC1=O [compound 32],0.01 to 1,0.01 to 1
"CDATCQFRKAIDECARQAHHSNVPGSVFKACMKQKKKEWKAGH (disulfide 1-5, 14-31) [compound 25]",0.01 to 1,< 0.01
"CDATCQFRKAIDDCAKQAHHSNVPGSVFKSCMKQKKKEFKAG-NH2 (disulfide 1-5, 14-31) [compound 31]",0.01 to 1,< 0.01
"CC[C@H](C)[C@H](NC(=O)[C@H](C)NC(=O)[C@H](CCCCN)NC(=O)[C@H](CCCNC(=N)N)NC(=O)[C@H](Cc1ccccc1)NC(=O)[C@H](CCC(N)=O)NC(=O)[C@@H]1CSSC[C@H](N)C(=O)N[C@@H](CC(=O)O)C(=O)N[C@@H](C)C(=O)N[C@@H]([C@@H](C)O)C(=O)N1)C(=O)N[C@@H](CC(=O)O)C(=O)N[C@@H](CC(=O)O)C(=O)N[C@H]1CSSC[C@@H](C(=O)N[C@@H](CCSC)C(=O)N[C@@H](CCCCN)C(=O)N[C@@H](CCC(N)=O)C(=O)N[C@@H](CCCCN)C(=O)N[C@@H](CCCCN)C(=O)N[C@@H](CCCCN)C(=O)N[C@@H](CCC(=O)O)C(=O)N[C@@H](Cc2c[nH]c3ccccc23)C(=O)N[C@@H](CCCCN)C(=O)N[C@@H](C)C(=O)NCC(N)=O)NC(=O)[C@H](C)NC(=O)[C@H](CCCCN)NC(=O)[C@H](Cc2ccccc2)NC(=O)[C@H](C(C)C)NC(=O)[C@H](CO)NC(=O)[C@H](CO)NC(=O)[C@H](Cc2c[nH]cn2)NC(=O)[C@H](Cc2ccc(O)cc2)NC(=O)[C@H](C)NC(=O)[C@H](CCC(N)=O)NC(=O)[C@H](CCCNC(=N)N)NC(=O)[C@H](CC(=O)O)NC1=O [compound 21] (H-CDATCQFRKAIDDCDRQAYHSSVFKACMKQKKKEWKAG-NH2; disulfide 1-5, 14-27)",0.01 to 1,0.01 to 1
"CDATCQFRKAIDDCVRQAHHSNVPGSVWKACMKQKKKEWKAGH (disulfide 1-5, 14-31) [compound 106]",0.01 to 1,0.01 to 1
"CC[C@H](C)[C@H](NC(=O)[C@H](C)NC(=O)[C@H](CCCCN)NC(=O)[C@H](CCCNC(=N)N)NC(=O)[C@H](Cc1ccccc1)NC(=O)[C@H](CCC(N)=O)NC(=O)[C@@H]1CSSC[C@H](N)C(=O)N[C@@H](CC(=O)O)C(=O)N[C@@H](C)C(=O)N[C@@H]([C@@H](C)O)C(=O)N1)C(=O)N[C@@H](CC(=O)O)C(=O)N[C@@H](CC(=O)O)C(=O)N[C@H]1CSSC[C@@H](C(=O)N[C@@H](CCSC)C(=O)N[C@@H](CCCCN)C(=O)N[C@@H](CCC(N)=O)C(=O)N[C@@H](CCCCN)C(=O)N[C@@H](CCCCN)C(=O)N[C@@H](CCCCN)C(=O)N[C@@H](CCC(=O)O)C(=O)N[C@@H](Cc2ccccc2)C(=O)N[C@@H](CCCCN)C(=O)N[C@@H](C)C(=O)NCC(=O)N[C@@H](Cc2ccc(O)cc2)C(=O)O)NC(=O)[C@H](C)NC(=O)[C@H](CCCCN)NC(=O)[C@H](Cc2ccccc2)NC(=O)[C@H](C(C)C)NC(=O)[C@H](CO)NC(=O)[C@H](CO)NC(=O)[C@H](Cc2c[nH]cn2)NC(=O)[C@H](C)NC(=O)[C@H](CCC(N)=O)NC(=O)[C@H](CCCCN)NC(=O)[C@H](C)NC1=O [compound 37] (H-CDATCQFRKAIDDCAKQAHSSVFKACMKQKKKEFKAGY-OH; disulfide 1-5, 14-26)",1 to 100,0.01 to 1
"CDATCQFRKAIDDCAWFAMHSNVPGSVFKACMKQKKKEFKAG-NH2 (disulfide 1-5, 14-31) [compound 90]",0.01 to 1,0.01 to 1
"CDATCQFRKAIDDCARQAHHSNVPGSVFKSCMKQKKKEWKAGH (disulfide 1-5, 14-31) [compound 24]",0.01 to 1,0.01 to 1
